Measurements as given in ChEMBL document CHEMBL1811755, “α-Tocotrienol quinone modulates oxidative stress response and the biochemistry of aging” (Bioorg Med Chem Lett, 2011).
pEC50: −log10 of the molar value. Calls of active or inactive are those of the source. The calls are words filed in the database; no cut-off is given here.

Experiments:
[1] = Cytoprotectant activity against L-buthionine-(S,R)-sulfoximine-induced cell death in Friedreich ataxia patient fibroblasts assessed as increase of cell viability; type: functional, cell-based; conditions: Homo sapiens, Fibroblast
[2] = test system: Fibroblast; test: Cytoprotectant activity against L-buthionine-(S,R)-sulfoximine-induced cell death in Friedreich ataxia patient fibroblasts assessed as increase of cell viability up to 1000 nM; type: functional, cell-based; conditions: Homo sapiens
[3] = test system: Fibroblast; test: Cytoprotectant activity against L-buthionine-(S,R)-sulfoximine-induced cell death in Leigh syndrome patient fibroblasts assessed as increase of cell viability up to 1000 nM; type: functional, cell-based; conditions: Homo sapiens
[4] = test system: Rattus norvegicus; test: In vivo metabolic stability in rat assessed as parent compound remaining at 5 mg/kg, iv; type: ADME, organism-based; design: dose 5 mg/kg, route intravenous
[5] = test system: Rattus norvegicus; test: In vivo metabolic stability in rat assessed as parent compound remaining at 25 mg/kg, po; type: ADME, organism-based; design: dose 25 mg/kg, route oral
[6] = AUCt in rat plasma at 2 mg/kg, iv; type: ADME, organism-based; design: dose 2 mg/kg, route intravenous
[7] = test system: Plasma; test: AUC (infinity) in rat plasma at 2 mg/kg, iv; type: ADME, organism-based; design: time infinity, dose 2 mg/kg, route intravenous; conditions: in vivo
[8] = Terminal half life in rat plasma at 2 mg/kg, iv; type: ADME, organism-based; design: dose 2 mg/kg, route intravenous; conditions: read-out: beta t1/2 (converted)
[9] = test system: Plasma; test: Volume of infusion in rat plasma at 2 mg/kg, iv; type: ADME, organism-based; design: dose 2 mg/kg, route intravenous; conditions: in vivo
[10] = Volume of distribution at steady state in rat plasma at 2 mg/kg, iv; type: ADME, organism-based; design: dose 2 mg/kg, route intravenous; conditions: read-out: Vdss
[11] = Apparent volume of distribution in rat plasma at 2 mg/kg, iv; type: ADME, organism-based; design: dose 2 mg/kg, route intravenous; conditions: read-out: Vz
[12] = Cmax in rat plasma at 25 mg/kg, po; type: ADME, organism-based; design: dose 25 mg/kg, route oral
[13] = Tmax in rat plasma at 25 mg/kg, po; type: ADME, organism-based; design: dose 25 mg/kg, route oral
[14] = AUCt in rat plasma at 25 mg/kg, po; type: ADME, organism-based; design: dose 25 mg/kg, route oral
[15] = Bioavailability in fasted rat plasma at 25 mg/kg, po; type: ADME, organism-based
[16] = Cmax in rat plasma at 10 mg/kg, po; type: ADME, organism-based; design: dose 10 mg/kg, route oral
[17] = Tmax in rat plasma at 10 mg/kg, po; type: ADME, organism-based; design: dose 10 mg/kg, route oral
[18] = AUCt in rat plasma at 10 mg/kg, po; type: ADME, organism-based; design: dose 10 mg/kg, route oral
[19] = AUC (infinity) in rat plasma at 10 mg/kg, po; type: ADME, organism-based; design: time infinity, dose 10 mg/kg, route oral
[20] = Terminal half life in rat plasma at 10 mg/kg, po; type: ADME, organism-based; design: dose 10 mg/kg, route oral; conditions: read-out: beta t1/2 (converted)
[21] = Bioavailability in fed rat plasma at 10 mg/kg, po; type: ADME, organism-based
[22] = AUCt in dog plasma at 2 mg/kg, iv; type: ADME, organism-based, Canis lupus familiaris; design: dose 2 mg/kg, route intravenous
[23] = AUC (infinity) in dog plasma at 2 mg/kg, iv; type: ADME, organism-based, Canis lupus familiaris; design: dose 2 mg/kg, route intravenous, time infinity
[24] = Terminal half life in dog plasma at 2 mg/kg, iv; type: ADME, organism-based, Canis lupus familiaris; design: dose 2 mg/kg, route intravenous; conditions: read-out: beta t1/2 (converted)
[25] = Clearance in dog plasma at 2 mg/kg, iv; type: ADME, organism-based, Canis lupus familiaris; design: dose 2 mg/kg, route intravenous
[26] = test system: Plasma; test: Volume of infusion in dog plasma at 2 mg/kg, iv; type: ADME, organism-based, Canis lupus familiaris; design: dose 2 mg/kg, route intravenous; conditions: in vivo
[27] = Volume of distribution at steady state in dog plasma at 2 mg/kg, iv; type: ADME, organism-based, Canis lupus familiaris; design: dose 2 mg/kg, route intravenous; conditions: read-out: Vdss
[28] = Apparent volume of distribution in dog plasma at 2 mg/kg, iv; type: ADME, organism-based, Canis lupus familiaris; design: dose 2 mg/kg, route intravenous; conditions: read-out: Vz
[29] = Cmax in dog plasma at 10 mg/kg, po; type: ADME, organism-based, Canis lupus familiaris; design: dose 10 mg/kg, route oral
[30] = Tmax in dog plasma at 10 mg/kg, po; type: ADME, organism-based, Canis lupus familiaris; design: dose 10 mg/kg, route oral
[31] = AUCt in dog plasma at 10 mg/kg, po; type: ADME, organism-based, Canis lupus familiaris; design: dose 10 mg/kg, route oral
[32] = AUC (infinity) in dog plasma at 10 mg/kg, po; type: ADME, organism-based, Canis lupus familiaris; design: time infinity, dose 10 mg/kg, route oral
[33] = Terminal half life in dog plasma at 10 mg/kg, po; type: ADME, organism-based, Canis lupus familiaris; design: dose 10 mg/kg, route oral; conditions: read-out: beta t1/2 (converted)
[34] = Cmax in mouse plasma at 25 mg/kg, ip; type: ADME, organism-based; design: dose 25 mg/kg, route intraperitoneal
[35] = Tmax in mouse plasma at 25 mg/kg, ip; type: ADME, organism-based; design: dose 25 mg/kg, route intraperitoneal
[36] = AUCt in mouse plasma at 25 mg/kg, ip; type: ADME, organism-based; design: dose 25 mg/kg, route intraperitoneal
[37] = AUC (infinity) in mouse plasma at 25 mg/kg, ip; type: ADME, organism-based; design: time infinity, dose 25 mg/kg, route intraperitoneal
[38] = Terminal half life in mouse plasma at 25 mg/kg, ip; type: ADME, organism-based; design: dose 25 mg/kg, route intraperitoneal; conditions: read-out: beta t1/2 (converted)
[39] = Cmax in mouse brain at 25 mg/kg, ip; type: ADME, organism-based; design: dose 25 mg/kg, route intraperitoneal
[40] = Tmax in mouse brain at 25 mg/kg, ip; type: ADME, organism-based; design: dose 25 mg/kg, route intraperitoneal
[41] = test system: Brain; test: AUCt in mouse brain at 25 mg/kg, ip; type: ADME, organism-based; design: dose 25 mg/kg, route intraperitoneal; conditions: in vivo
[42] = test system: Brain; test: AUC (infinity) in mouse brain at 25 mg/kg, ip; type: ADME, organism-based; design: time infinity, dose 25 mg/kg, route intraperitoneal; conditions: in vivo
[43] = Terminal half life in mouse brain at 25 mg/kg, ip; type: ADME, organism-based; design: dose 25 mg/kg, route intraperitoneal; conditions: read-out: beta t1/2 (converted)
[44] = Cmax in human plasma at 2 mg/kg, po; type: ADME, organism-based; design: dose 2 mg/kg, route oral
[45] = Tmax in human plasma at 2 mg/kg, po; type: ADME, organism-based; design: dose 2 mg/kg, route oral
[46] = Bioavailability in dog plasma at 10 mg/kg, po; type: ADME, organism-based, Canis lupus familiaris
[47] = test system: Serum; test: Drug level in mouse serum at 25 mg/kg, ip; type: ADME, organism-based; design: dose 25 mg/kg, route intraperitoneal; conditions: in vivo
[48] = test system: Heart; test: Drug level in mouse heart at 25 mg/kg, ip; type: ADME, organism-based; design: dose 25 mg/kg, route intraperitoneal; conditions: in vivo
[49] = Drug level in dog retina at 300 mg/kg/day, po qd for 7 days; type: ADME, organism-based, Canis lupus familiaris; design: route oral; conditions: read-out: Drug uptake
[50] = Drug level in dog cornea at 300 mg/kg/day, po qd for 7 days; type: ADME, organism-based, Canis lupus familiaris; design: route oral; conditions: read-out: Drug uptake
[51] = Plasma concentration in dog at 300 mg/kg/day, po qd for 7 days; type: ADME, organism-based, Canis lupus familiaris; design: route oral
[52] = test system: Salmonella typhimurium; test: Mutagenic activity in Salmonella Typhimurium by Ames test; type: toxicity, organism-based; conditions: salmonella enterica subsp. enterica serovar typhimurium
[53] = test system: CHO; test: Genotoxicity in CHO cells assessed as induction of micronucleus; type: toxicity, cell-based, Cricetulus griseus; conditions: chinese hamster
[54] = Toxicity in dog administered orally once daily for 28 days; type: organism-based, Canis lupus familiaris; conditions: in vivo, po
[55] = Toxicity in rat administered orally once daily for 28 days; type: organism-based; conditions: in vivo, po
[56] = test system: Rattus norvegicus; test: Prolongation of prothrombin time in rat at 100 mg/kg/day, po; type: functional, organism-based
[57] = test system: Rattus norvegicus; test: Prolongation of activated partial thromboplastin time in rat at 100 mg/kg/day, po; type: functional, organism-based
[58] = test system: Canis familiaris; test: Prolongation of prothrombin time in dog at 100 mg/kg/day, po; type: functional, organism-based; conditions: Canis lupus familiaris
[59] = test system: Canis familiaris; test: Prolongation of activated partial thromboplastin time in dog at 100 mg/kg/day, po; type: functional, organism-based; conditions: Canis lupus familiaris
[60] = Cytoprotectant activity against L-buthionine-(S,R)-sulfoximine-induced cell death in Leigh syndrome patient fibroblasts assessed as increase of cell viability; type: functional, cell-based; conditions: Homo sapiens, Fibroblast
[61] = test system: Fibroblast; test: Ratio of compound EC50 to co-enzyme Q10 EC50 for cytoprotectant activity in Friedreich ataxia patient fibroblasts; type: functional, Homo sapiens
[62] = test system: Fibroblast; test: Ratio of compound EC50 to idebenone EC50 for cytoprotectant activity in Friedreich ataxia patient fibroblasts; type: functional, Homo sapiens
[63] = test system: Fibroblast; test: Ratio of compound EC50 to resveratrol EC50 for cytoprotectant activity in Friedreich ataxia patient fibroblasts; type: functional, Homo sapiens
[64] = test system: Mus musculus; test: Ratio of drug level in mouse brain to serum at 25 mg/kg, ip
[65] = test system: Mus musculus; test: Ratio of drug level in mouse heart to serum at 25 mg/kg, ip; conditions: other tissue

Oc1ccc(/C=C/c2cc(O)cc(O)c2)cc1 [RESVERATROL]
pEC50 [1]: 5.84

COC1=C(OC)C(=O)C(C/C=C(\C)CC/C=C(\C)CC/C=C(\C)CC/C=C(\C)CC/C=C(\C)CC/C=C(\C)CC/C=C(\C)CC/C=C(\C)CC/C=C(\C)CCC=C(C)C)=C(C)C1=O
Activity [2]: inactive
Activity [3]: inactive

COC1=C(OC)C(=O)C(CCCCCCCCCCO)=C(C)C1=O [IDEBENONE]
pEC50 [1]: 6.07

CC(C)=CCC/C(C)=C/CC/C(C)=C/CC[C@]1(C)CCc2c(C)c(O)c(C)c(C)c2O1 [ALPHA-TOCOTRIENOL]
Stability [4]: 7%
Stability [5]: 5%

CC(C)=CCC/C(C)=C/CC/C(C)=C/CC[C@@](C)(O)CCC1=C(C)C(=O)C(C)=C(C)C1=O [VATIQUINONE]
AUC(0-t) [6]: 984 ng·h/mL
AUC [7]: 1069 ng·h/mL
half-life [8]: 3.5 h
Vi [9]: 0.117 L/kg
Vd [10]: 0.222 L/kg
Vd [11]: 3.73 L/kg
Cmax [12]: 248 ng/mL
Tmax [13]: 4 h
AUC(0-t) [14]: 961 ng·h/mL
bioavailability [15]: 4.1%
Cmax [16]: 931 ng/mL
Tmax [17]: 3.5 h
AUC(0-t) [18]: 4730 ng·h/mL
AUC(0-inf) [19]: 4780 ng·h/mL
half-life [20]: 3.5 h
bioavailability [21]: 89%
AUC(0-t) [22]: 3410 ng·h/mL
AUC(0-inf) [23]: 3570 ng·h/mL
half-life [24]: 7.5 h
clearance [25]: 9.57 mL/min/kg
Vi [26]: 0.095 L/kg
Vd [27]: 2.54 L/kg
Vd [28]: 6.25 L/kg
Cmax [29]: 442 ng/mL
Tmax [30]: 2.8 h
AUC(0-t) [31]: 2690 ng·h/mL
AUC(0-inf) [32]: 2820 ng·h/mL
half-life [33]: 7.6 h
Cmax [34]: 1190 ng/mL
Tmax [35]: 0.5 h
AUC(0-t) [36]: 4840 ng·h/mL
AUC(0-inf) [37]: 5860 ng·h/mL
half-life [38]: 7.6 h
Cmax [39]: 539 ng/g
Tmax [40]: 12 h
AUCt [41]: 7738 ng·h/g
AUC [42]: 10724 ng·h/g
half-life [43]: 12.4 h
Cmax [44]: 167 ng/mL
Tmax [45]: 2 h
bioavailability [46]: 17%
Drug uptake [47]: 300 ng/mL
Drug uptake [48]: 848 ng/g
concentration at 168 h [49]: 11200 ng/g
concentration at 168 h [50]: 755 ng/g
concentration at 168 h [51]: 10000 ng/mL
Activity [52]: Non-toxic
Activity [53]: Non-toxic
NOAEL at 672 h [54]: 100 mg/kg
NOAEL at 672 h [55]: 100 mg/kg
Activity [56]: Active
Activity [57]: Active
Activity [58]: Active
Activity [59]: Active
pEC50 [1]: 7.62
pEC50 [60]: 7.52
Ratio EC50 [61]: 100
Ratio EC50 [62]: 100
Ratio EC50 [63]: 100
Ratio [64]: 1.83 mL/g
Ratio [65]: 0.71 mL/g
